Reference: US20090208979A1, “Method for identifying antipsychotic drug candidates” (priority 2008, published 2009)
Where two headings read alike, the source gives them in different places.

What was measured:
PKCβ2 [1] = format: cell-based, rat
GAD67 = format: cell-based, rat; details: whole cell lysates, vs control
ERK2 = details: whole cell lysates, normalized to total ERK2, vs control; for reduction of ERK2 phosphorylation: acute treatment, 15 minutes; for increase of ERK2 phosphorylation: chronic treatment, 7 days
PKCβ2 [2] = details: rat, in vivo, ip
PKC [3] = tested on: PKC
PKC [4] = tested on: PKC; remark: listed apart in the source
GAD67 mRNA = format: in vivo, rat; details: rats, 14 days daily IP (haloperidol 1 mg/kg, fluvoxamine 10 mg/kg, clozapine 10 mg/kg); frontal cortex; vs control
PKCβ2 [5] = format: in vivo, rat; details: rats, chronic 14 days IP; frontal cortex; vs control
[6] = rats; haloperidol 1 mg/kg and fluvoxamine 10 mg/kg IP; cited from earlier work
[7] = tested on: negative symptoms of schizophrenia; details: add-on to antipsychotic treatment; clinical studies; cited from earlier work
[8] = chronic treatment, 7 days, whole cell lysates, vs control
[9] = rats, 14 days daily IP (haloperidol 1 mg/kg, fluvoxamine 10 mg/kg, clozapine 10 mg/kg), frontal cortex, vs control
[10] = rats, chronic 14 days IP, frontal cortex, vs control

CN1CCN(C2=Nc3cc(Cl)ccc3Nc3ccccc32)CC1 [clozapine]
decrease of PKCβ2 protein level (PKCβ2 [1]; acute treatment, 15 minutes, whole cell lysates, vs control): 31%
decrease of PKCβ2 protein level (PKCβ2 [1]; [8]): 60%
decrease of GAD67 protein level (GAD67; acute treatment, 15 minutes): 25%
decrease of GAD67 protein level (GAD67; chronic treatment, 7 days): 73%
reduction of ERK2 phosphorylation (ERK2): 67%
increase of ERK2 phosphorylation (ERK2): 87%

COCCCC/C(=N\OCCN)c1ccc(C(F)(F)F)cc1 [fluvoxamine]
PKCβ2 level, cytosolic compartment (PKCβ2 [2]): reduced level
increase of PKCβ2 protein level (PKCβ2 [1]): did not affect
decrease of GAD67 protein level (GAD67; chronic treatment, 7 days): 60%
PKCβ mRNA level (PKCβ mRNA; rat, in vivo): increased significantly
PKCγ mRNA level (PKCγ mRNA; rat, in vivo): increased significantly
increase of PKC phosphorylation in the membranal fraction (PKC [3]; rat, in vivo, ip): 50%
increase of PKC phosphorylation in whole lysate (PKC [3]; rat, in vivo, ip): 40%
increase of PKC phosphorylation level (PKC [4]): 156%

O=C(CCCN1CCC(O)(c2ccc(Cl)cc2)CC1)c1ccc(F)cc1 [haloperidol]
GAD67 mRNA level (GAD67 mRNA): significantly increased
PKCβ2 protein level, whole tissue lysate (PKCβ2 [5]): significantly increased
increase of PKCβ2 protein level (PKCβ2 [1]; [8]): 106%
decrease of GAD67 protein level (GAD67; acute treatment, 15 minutes): did not affect
decrease of GAD67 protein level (GAD67; chronic treatment, 7 days): did not affect
PKCβ mRNA level (PKCβ mRNA; [9]): significantly increased
PKCγ mRNA level (PKCγ mRNA; [9]): significantly increased
increase of PKC phosphorylation in the membranal fraction (PKC [3]; [10]): 45%
increase of PKC phosphorylation in whole lysate (PKC [3]; [10]): 38%
increase of PKC phosphorylation level (PKC [4]; 15 minutes treatment (FIG. 11A), whole cell lysates, normalized to β-actin, vs control): 134%
reduction of ERK2 phosphorylation (ERK2): did not alter
increase of ERK2 phosphorylation (ERK2): did not alter
brain and serum concentrations when coadministered compared with given individually [6]: not significantly changed

CNCCCC12CCC(c3ccccc31)c1ccccc12 [maprotiline]
effect on negative symptoms of schizophrenia [7]: did not improve negative symptoms
